The values that follow come from patent US10717733B2, “Haloallylamine indole and azaindole derivative inhibitors of lysyl oxidases and uses thereof” (PHARMAXIS LTD., priority 2016, dated 2020).

Structures can show the parent of a compound that is named as a salt.

Type in all cases: biochemical
For one assay, the target named is Bovine LOX (Bos taurus (Bovine), UniProt P33072). The assay is described as follows: LOX inhibition, peroxidase-coupled Amplex Red amine oxidase assay. The note with it: 30 min preincubation at 37° C., putrescine substrate. The text has this:
(§1) Method to Determine the Ability of Compounds of the Invention to Inhibit LOX and LOXL1-4 from Different Sources
Lysyl oxidase (LOX) is an extracellular copper dependent enzyme which oxidizes peptidyl lysine and hydroxylysine residues in collagen and lysine residues in elastin to produce peptidyl alpha-aminoadipic-delta-semialdehydes. […] There are five LOX family members; these are LOX, LOXL1, LOXL2, LOXL3 and LOXL4. LOX and LOXL family members can be acquired as recombinant active proteins from commercial sources, or extracted from animal tissues like bovine aorta, tendons, pig skin; or prepared from cell cultures. The inhibitory effects of the compounds of the present invention were tested against the given LOX-LOXL preparation using a high-throughput coupled colorimetric method (Holt A. and Palcic M., A peroxidase-coupled continuous absorbance plate-reader assay for flavin monoamine oxidases, copper-containing amine oxidases and related enzymes. Nat. Protoc. 2006; 1: 2498-2505). The assay was developed using either 384 or 96 well format. Briefly, in a standard 384 well plate assay 25 μL of a dilution of any of the isoenzymes and orthologues in 1.2 M urea, 50 mM sodium borate buffer (pH 8.2) were added into each well in the presence of 1 μM mofegiline and 0.5 mM pargyline (to inhibit SSAO and MAO-B and MAO-A, respectively). […] of a reaction mixture containing twice the KM concentration of putrescine (Sigma Aldrich, e.g. 20 mM for LOX, or 10 mM for LOXL2 and LOXL3), 120 μM Amplex Red (Sigma Aldrich) and 1.5 U/mL horseradish peroxidase (Sigma Aldrich) prepared in 1.2 M urea, 50 mM sodium borate buffer (pH 8.2) were then added to the corresponding wells. The above volumes were doubled in the case of 96 wells plate. The fluorescence (RFU) was read every 2.5 min for 30 min at a range of temperatures from 37° to 45° C., excitation 565 nm and emission 590 (Optima; BMG labtech). The slope of the kinetics for each well was calculated using MARS data analysis software (BMG labtech) and this value was used to deduce the IC50 value (Dotmatics).

The target in another assay is Human LOXL2 (Homo sapiens (Human), UniProt Q9Y4K0). The assay is described as follows: LOXL2 inhibition, peroxidase-coupled Amplex Red amine oxidase assay. Conditions: 30 min preincubation at 37° C., putrescine substrate.
Description: as §1
Lysyl oxidase (LOX) is an extracellular copper dependent enzyme which oxidizes peptidyl lysine and hydroxylysine residues in collagen and lysine residues in elastin to produce peptidyl alpha-aminoadipic-delta-semialdehydes. […] There are five LOX family members; these are LOX, LOXL1, LOXL2, LOXL3 and LOXL4. LOX and LOXL family members can be acquired as recombinant active proteins from commercial sources, or extracted from animal tissues like bovine aorta, tendons, pig skin; or prepared from cell cultures. The inhibitory effects of the compounds of the present invention were tested against the given LOX-LOXL preparation using a high-throughput coupled colorimetric method (Holt A. and Palcic M., A peroxidase-coupled continuous absorbance plate-reader assay for flavin monoamine oxidases, copper-containing amine oxidases and related enzymes. Nat. Protoc. 2006; 1: 2498-2505). The assay was developed using either 384 or 96 well format. Briefly, in a standard 384 well plate assay 25 μL of a dilution of any of the isoenzymes and orthologues in 1.2 M urea, 50 mM sodium borate buffer (pH 8.2) were added into each well in the presence of 1 μM mofegiline and 0.5 mM pargyline (to inhibit SSAO and MAO-B and MAO-A, respectively). Test compounds were dissolved in DMSO and tested in a Concentration Response Curve (CRC) with 11 data points, typically in the micromolar or nanomolar range after incubation with the enzyme for 30 min at 37° C. Twenty five L of a reaction mixture containing twice the KM concentration of putrescine (Sigma Aldrich, e.g. 20 mM for LOX, or 10 mM for LOXL2 and LOXL3), 120 μM Amplex Red (Sigma Aldrich) and 1.5 U/mL horseradish peroxidase (Sigma Aldrich) prepared in 1.2 M urea, 50 mM sodium borate buffer (pH 8.2) were then added to the corresponding wells. The above volumes were doubled in the case of 96 wells plate. The fluorescence (RFU) was read every 2.5 min for 30 min at a range of temperatures from 37° to 45° C., excitation 565 nm and emission 590 (Optima; BMG labtech). The slope of the kinetics for each well was calculated using MARS data analysis software (BMG labtech) and this value was used to deduce the IC50 value (Dotmatics).

Assay [1] addresses human recombinant SSAO/VAP-1 (Homo sapiens (Human), UniProt Q16853). The assay is described as follows: Inhibition of human recombinant SSAO/VAP-1 amine oxidase activity. The note with it: 30 min preincubation at 37° C., 600 μM benzylamine. The protocol: Method to Determine the Ability of Compounds of Formula I to Inhibit Human Recombinant SSAO/VAP-1
Human recombinant SSAO/VAP-1 amine oxidase activity was determined using the coupled colorimetric method as described for monoamine oxidase, copper-containing amine oxidases and related enzymes (Holt A. and Palcic M., A peroxidase-coupled continuous absorbance plate-reader assay for flavin monoamine oxidases, copper-containing amine oxidases and related enzymes. Nat Protoc 2006; 1: 2498-2505). Briefly, a cloned cDNA template corresponding to residues 34-763 of human SSAO/VAP-1, and incorporating a mouse Ig kappa (κ) signal sequence, N-terminal flag epitope tag and tobacco etch virus (TEV) cleavage site, was assembled in a mammalian expression vector (pLO-CMV) by Geneart AG. This vector containing human SSAO/VAP-1 residues was transfected into CHO-K1 glycosylation mutant cell line, Lec 8. A clone stably expressing human SSAO/VAP-1 was isolated and cultured in large scale. Active human SSAO/VAP-1 was purified and recovered using immunoaffinity chromatography. This was used as the source for SSAO/VAP-1 activity. A high-throughput colorimetric assay was developed using either 96 or 384 well format. Briefly, in a standard 96 well plate assay 50 μL of purified human SSAO/VAP-1 (0.25 μg/mL) in 0.1 M sodium phosphate buffer (pH 7.4) was added into each well. Test compounds were dissolved in DMSO and tested in a Concentration Response Curve (CRC) with 4-11 data points, typically in the micromolar or nanomolar range after incubation with human SSAO/VAP-1 for 30 min at 37° C. After 30 min incubation, 50 μL of the reaction mixture containing 600 μM benzylamine (Sigma Aldrich), 120 μM Amplex Red (Sigma Aldrich) and 1.5 U/mL horseradish peroxidase (Sigma Aldrich) prepared in 0.1 M sodium phosphate buffer (pH 7.4) were added to the corresponding well. The fluorescence unit (RFU) was read every 2.5 min for 30 min at 37° C. excitation 565 nm and emission 590 (Optima; BMG labtech). The slope of the kinetics for each well was calculated using MARS data analysis software (BMG labtech) and this value was used to deduce the IC50 value (Dotmatics).

For a further assay, the target named is Recombinant human MAO-B (Homo sapiens (Human), UniProt P27338). The assay is described as follows: Inhibition of human recombinant MAO-B. Conditions: benzylamine 100 μM. The protocol:
Method to Determine the Ability of Compounds of Formula I to Inhibit Human Recombinant MAO-B
The specificity of the compounds of this invention was tested by determining their ability to inhibit MAO-B activities in vitro. Recombinant human MAO-B (0.06 mg/mL; Sigma Aldrich) was used as source of MAO-B enzyme activities. The assay was performed in a similar way as for human SSAO/VAP-1 (Example 66) except, the substrate benzylamine was used at 100 μM.

Sequence of Recombinant human MAO-B (P27338 whole entry): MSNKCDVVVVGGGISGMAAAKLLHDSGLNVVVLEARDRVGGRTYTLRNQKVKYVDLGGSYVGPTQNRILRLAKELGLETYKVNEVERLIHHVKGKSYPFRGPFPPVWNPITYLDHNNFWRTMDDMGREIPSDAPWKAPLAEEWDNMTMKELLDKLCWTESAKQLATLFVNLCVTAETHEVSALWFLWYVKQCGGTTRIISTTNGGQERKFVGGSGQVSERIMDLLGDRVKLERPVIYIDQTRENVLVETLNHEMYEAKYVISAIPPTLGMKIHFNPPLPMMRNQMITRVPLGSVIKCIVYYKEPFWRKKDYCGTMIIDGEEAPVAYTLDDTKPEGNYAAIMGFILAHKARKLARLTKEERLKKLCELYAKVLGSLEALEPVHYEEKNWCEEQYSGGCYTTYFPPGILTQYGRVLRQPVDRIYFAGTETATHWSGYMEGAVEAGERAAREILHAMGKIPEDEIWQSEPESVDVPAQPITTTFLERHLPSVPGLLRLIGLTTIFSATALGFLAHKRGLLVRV
Sequence of human recombinant SSAO/VAP-1 (Q16853 34-763): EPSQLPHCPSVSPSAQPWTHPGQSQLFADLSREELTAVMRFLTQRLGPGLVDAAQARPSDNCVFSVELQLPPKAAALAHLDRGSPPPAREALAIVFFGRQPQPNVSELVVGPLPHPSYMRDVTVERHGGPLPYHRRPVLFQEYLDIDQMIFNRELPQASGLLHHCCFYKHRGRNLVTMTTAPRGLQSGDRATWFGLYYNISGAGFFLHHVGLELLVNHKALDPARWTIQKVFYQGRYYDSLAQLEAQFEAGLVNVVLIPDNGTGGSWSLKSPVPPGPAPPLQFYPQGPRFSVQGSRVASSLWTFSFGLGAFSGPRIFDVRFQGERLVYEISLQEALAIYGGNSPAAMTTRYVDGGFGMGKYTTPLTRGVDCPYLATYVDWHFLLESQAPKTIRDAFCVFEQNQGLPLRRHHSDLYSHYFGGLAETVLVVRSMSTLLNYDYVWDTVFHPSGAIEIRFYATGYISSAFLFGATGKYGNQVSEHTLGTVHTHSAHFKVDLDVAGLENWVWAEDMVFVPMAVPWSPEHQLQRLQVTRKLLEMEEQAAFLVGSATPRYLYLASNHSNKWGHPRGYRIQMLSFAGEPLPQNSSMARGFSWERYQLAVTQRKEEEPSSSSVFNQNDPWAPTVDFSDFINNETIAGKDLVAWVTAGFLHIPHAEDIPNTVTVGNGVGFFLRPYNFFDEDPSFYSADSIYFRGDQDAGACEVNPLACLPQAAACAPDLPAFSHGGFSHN
Sequence of Human LOXL2 (Q9Y4K0 26-774): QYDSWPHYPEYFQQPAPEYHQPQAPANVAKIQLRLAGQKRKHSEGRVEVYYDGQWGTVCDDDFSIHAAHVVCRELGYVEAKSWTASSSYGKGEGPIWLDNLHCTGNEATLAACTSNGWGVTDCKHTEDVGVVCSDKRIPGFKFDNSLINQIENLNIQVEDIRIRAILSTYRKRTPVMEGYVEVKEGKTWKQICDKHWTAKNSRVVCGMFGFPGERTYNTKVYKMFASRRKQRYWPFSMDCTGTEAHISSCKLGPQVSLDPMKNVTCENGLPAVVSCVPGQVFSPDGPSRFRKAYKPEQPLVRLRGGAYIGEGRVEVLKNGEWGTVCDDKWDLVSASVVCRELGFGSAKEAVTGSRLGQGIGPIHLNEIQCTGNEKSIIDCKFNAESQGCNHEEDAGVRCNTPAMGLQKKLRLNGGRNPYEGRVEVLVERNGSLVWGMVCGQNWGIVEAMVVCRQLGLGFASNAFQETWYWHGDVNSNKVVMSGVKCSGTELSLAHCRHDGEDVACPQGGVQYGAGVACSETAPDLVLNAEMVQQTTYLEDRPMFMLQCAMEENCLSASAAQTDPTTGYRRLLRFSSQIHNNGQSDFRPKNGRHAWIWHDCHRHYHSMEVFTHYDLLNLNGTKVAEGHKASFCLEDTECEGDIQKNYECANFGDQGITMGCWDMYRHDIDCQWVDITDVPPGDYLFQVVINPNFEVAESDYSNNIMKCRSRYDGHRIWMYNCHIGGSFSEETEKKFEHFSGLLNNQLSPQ
Sequence of Bovine LOX (P33072 170-418): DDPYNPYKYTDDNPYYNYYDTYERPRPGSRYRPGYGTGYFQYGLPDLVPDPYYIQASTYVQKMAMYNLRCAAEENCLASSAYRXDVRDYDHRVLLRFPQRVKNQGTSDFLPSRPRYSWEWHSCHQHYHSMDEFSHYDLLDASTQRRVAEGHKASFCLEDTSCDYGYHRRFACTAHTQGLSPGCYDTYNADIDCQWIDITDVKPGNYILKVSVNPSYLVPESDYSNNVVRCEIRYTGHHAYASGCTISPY

For the molecule `Cc1c(-c2cccc(S(=O)(=O)N(C)C)c2)c2ccc(C(=O)O)cc2n1C/C(F)=C/CN` [Compound 9, (Z)-1-(4-amino-2-fluorobut-2-en-1-yl)-3-(3-(N,N-dimethylsulfamoyl)phenyl)-2-methyl-1H-indole-6-carboxylic acid], the IC50 was greater than 300 nM at Bovine LOX, less than 300 nM against Human LOXL2, greater than 3000 nM in assay [1] and greater than 3000 nM on Recombinant human MAO-B.

Take `Cc1c(-c2cccc(S(=O)(=O)N(C)C)c2)c2ccc(C(=O)N(C)C)cc2n1C/C(F)=C/CN` [Compound 10, (Z)-1-(4-amino-2-fluorobut-2-en-1-yl)-3-(3-(N,N-dimethylsulfamoyl)phenyl)-N,N,2-trimethyl-1H-indole-6-carboxamide]: the IC50 on Bovine LOX was greater than 300 nM; against Human LOXL2 it was less than 300 nM; in assay [1], greater than 3000 nM; on Recombinant human MAO-B, greater than 3000 nM.

As to `Cc1c(-c2cccc(S(=O)(=O)N(C)C)c2)c2ccc(C(N)=O)cc2n1C/C(F)=C/CN` [Compound 11, (Z)-1-(4-amino-2-fluorobut-2-en-1-yl)-3-(3-(N,N-dimethylsulfamoyl)phenyl)-2-methyl-1H-indole-6-carboxamide], the IC50 was greater than 300 nM at Bovine LOX, less than 300 nM against Human LOXL2, greater than 3000 nM in assay [1] and greater than 3000 nM on Recombinant human MAO-B.

With `Cc1c(-c2c(C)n(C/C(F)=C/CN)c3ccc(C(=O)O)cc23)cccc1S(=O)(=O)N(C)C` [Compound 13, (Z)-1-(4-amino-2-fluorobut-2-en-1-yl)-3-(3-(N,N-dimethylsulfamoyl)-2-methylphenyl)-2-methyl-1H-indole-5-carboxylic acid], the IC50 on Bovine LOX was greater than 300 nM; at Human LOXL2, less than 300 nM; in assay [1], greater than 3000 nM; on Recombinant human MAO-B, greater than 3000 nM.

Regarding `Cc1c(-c2cccc(S(C)(=O)=O)c2)c2cc(C(=O)O)ccc2n1C/C(F)=C/CN` [Compound 14, (Z)-1-(4-amino-2-fluorobut-2-en-1-yl)-2-methyl-3-(3-(methylsulfonyl)phenyl)-1H-indole-5-carboxylic acid], the IC50 on Bovine LOX was greater than 300 nM; against Human LOXL2, less than 300 nM; in assay [1], greater than 3000 nM; on Recombinant human MAO-B, greater than 3000 nM.

Regarding `CCOC(=O)c1ccc2c(c1)c(-c1cccc(C(=O)N(C)C)c1)c(C)n2C/C(F)=C/CN` [Compound 15, (Z)-ethyl 1-(4-amino-2-fluorobut-2-en-1-yl)-3-(3-(dimethylcarbamoyl)phenyl)-2-methyl-1H-indole-5-carboxylate Hydrochloride], the IC50 against Bovine LOX is greater than 300 nM; at Human LOXL2, less than 300 nM; in assay [1] it was greater than 3000 nM; on Recombinant human MAO-B, greater than 3000 nM.

Take `Cc1c(-c2cccc(C(=O)N(C)C)c2)c2cc(C(=O)O)ccc2n1C/C(F)=C/CN` [Compound 16, (Z)-1-(4-amino-2-fluorobut-2-en-1-yl)-3-(3-(dimethylcarbamoyl)phenyl)-2-methyl-1H-indole-5-carboxylic Acid Hydrochloride]: the half-maximal inhibitory concentration (IC50) against Bovine LOX was greater than 300 nM; against Human LOXL2 it was less than 300 nM; in assay [1], greater than 3000 nM; on Recombinant human MAO-B, greater than 3000 nM.

On to `CCOC(=O)c1ccc2c(c1)c(-c1cccc(S(C)(=O)=O)c1)c(C)n2C/C(F)=C/CN` [Compound 17, (Z)-ethyl 1-(4-amino-2-fluorobut-2-en-1-yl)-2-methyl-3-(3-(methylsulfonyl)phenyl)-1H-indole-5-carboxylate], for which the IC50 was greater than 300 nM at Bovine LOX, less than 300 nM against Human LOXL2, greater than 3000 nM in assay [1] and greater than 3000 nM at Recombinant human MAO-B.

`CNS(=O)(=O)c1cccc(-c2c(C)n(C/C(F)=C/CN)c3ccc(C(=O)O)cc23)c1` [Compound 18, (Z)-1-(4-amino-2-fluorobut-2-en-l-yl)-2-methyl-3-(3-(N-methylsulfamoyl)phenyl)-1H-indole-5-carboxylic acid, Hydrochloride]: the IC50 was greater than 300 nM against Bovine LOX, less than 300 nM on Human LOXL2, greater than 3000 nM in assay [1] and greater than 3000 nM at Recombinant human MAO-B.

Regarding `CCOC(=O)c1ccc2c(c1)c(-c1cc(S(=O)(=O)N(C)C)ccc1C)c(C)n2C/C(F)=C/CN` [Compound 19, (Z)-ethyl 1-(4-amino-2-fluorobut-2-en-1-yl)-3-(5-(N,N-dimethylsulfamoyl)-2-methylphenyl)-2-methyl-1H-indole-5-carboxylate], the IC50 on Bovine LOX was greater than 300 nM; at Human LOXL2, less than 300 nM; in assay [1], greater than 3000 nM; on Recombinant human MAO-B it was greater than 3000 nM.

For `Cc1ccc(S(=O)(=O)N(C)C)cc1-c1c(C)n(C/C(F)=C/CN)c2ccc(C(=O)O)cc12` [Compound 20, (Z)-1-(4-amino-2-fluorobut-2-en-1-yl)-3-(5-(N,N-dimethylsulfamoyl)-2-methylphenyl)-2-methyl-1H-indole-5-carboxylic acid], the IC50 against Bovine LOX is greater than 300 nM; at Human LOXL2, less than 300 nM; in assay [1], greater than 3000 nM; on Recombinant human MAO-B, greater than 3000 nM.

For `Cc1c(-c2cccc(S(=O)(=O)N(C)C)c2)c2cc(C(=O)O)c(F)cc2n1C/C(F)=C/CN` [Compound 21, (Z)-1-(4-amino-2-fluorobut-2-en-1-yl)-3-(3-(N,N-dimethylsulfamoyl)phenyl)-6-fluoro-2-methyl-1H-indole-5-carboxylic acid], the IC50 at Bovine LOX is greater than 300 nM; against Human LOXL2, less than 300 nM; in assay [1], greater than 3000 nM; on Recombinant human MAO-B it was greater than 3000 nM.
